The source of these data is publication PMC10117637 (Frontiers in Pharmacology, 2023).

The test system of one data set is Caco-2 cells. The data set can be described thus: Cell viability assay (MTT), nontoxic concentration. Format: cell-based, human. The settings on record: 48 h. As to the method:
The cytotoxicity of EDM and DEDM was assessed in Caco-2 cells using the aforementioned MTT test. These alkaloids were produced as solutions in DMSO and then diluted in cell culture media. Inoculating Caco-2 cells (1 × 10^4cells/well) in 96-well plates with 200 μL of media. After additional 48 h of incubation with EDM and DEDM (final test alkaloids concentrations ranged from 0.4 to 200 μM, and DMSO was less than 0.05%), the medium was discarded. To each well, an aliquot of 190 μL freshly prepared DMEM (serum-free) having 10.0 μL MTT (5 mg/mL) was added. The medium in every well was then removed from the plate after a further 4 h at 37°C of incubation. In 100 μL of DMSO, the purple formazan product was dissolved. Using a microplate reader, the ratio of absorbance (treated to untreated cells) at 490 nm was employed to measure cell viability.

The test system of data set [1] is Caco-2 cell monolayers. Conditions: pH 7.4.
Procedure: (§1) The Center of Cellular Resources at the Chinese Academy of Sciences (Shanghai, China) provided the human colon adenocarcinoma cell line Caco-2, and the experiment utilized 15–30 generations of these cells. DMEM enriched with 15% FBS, 1% non-essential amino acids, 1% Penicillin-Streptomycin Solution (×100), and 1% sodium pyruvate was utilized to cultivate cells at 37°C in a humidified atmosphere of 5% CO2. The cells were separated from flasks when they achieved the anticipated confluence threshold (70%–80%), and they were then inoculated in 12-well plates at a density of 2–5 × 10^5 cells/cm^2 in a polycarbonate Transwell® (pore size: 0.4 µm; filter area: 1.12 cm^2). In the first week, the culture media was switched every 2 days.
(§2) Caco-2 monolayers were pre-cultured in HBSS for 15 min at 37°C after being rinsed two times with preheated Hanks' balanced salt solution (HBSS, pH = 7.4). The donor side was supplemented with DEDM (25, 50, and 100 μM) and EDM (2.5, 5, and 10 μM), and the receiver chamber was filled with the corresponding volume of HBSS medium. For 120 min, the plate was incubated at 37°C. At 0, 30, 45, 60, 90, and 120 min, a 0.5 mL aliquot of each receiver chamber’s sample was taken, and 0.5 mL of HBSS was added to keep the volume constant. By using high-performance liquid chromatography (HPLC), the samples were examined. The sample (300 μL) taken from the receiver chamber was mixed with 300 μL of acetonitrile, and the combination was centrifuged for 10 min at 13,000 rpm. Lastly, a 100 µL aliquot of the supernatant was injected into the HPLC for examination.
(§3) Two drugs were quantitatively determined using an Agilent 1,260 HPLC apparatus (United States). A C18 column (1.8 μm, 3.0 × 150 mm; Agilent Technologies, Santa Clara, CA, United States) was used for the separation, with a column temperature of 25°C. The mobile phase comprised both A (water) and B (acetonitrile). The ratio between A and B was 70: 30 with a flow rate of 1 mL per minute. For EDM or DEDM, 20 μL samples were injected and analyzed at 290 nm or 344 nm, respectively. Acetonitrile was used to create the standard stock solutions for EDM and DEDM, respectively. By serially diluting standard stock solutions with HBSS, working solutions were made. The effective concentrations were 0.04–2.5 μg/mL for EDM and 0.23–7.5 μg/mL for DEDM, respectively. These samples were stored at 4°C before being used.
(§4) Eqs 1, 2 were used to determine the apparent permeability coefficients (Papp) and efflux ratio (ER) of marker drugs: Papp=dQ/dtC0A (1) where dQ/dt is the cumulative transport rate (M/min), C0 is the initial concentration of each marker drug, and A is the surface area of the filters. ER=PappBL−AP/PappAP−BL (2)
(§5) Data for transport experiments are presented as the mean ± SD of six independent experiments.
For data set [2], the system named is Caco-2 cell monolayers. Description: Caco-2 cell transport assay (Papp, efflux ratio). The settings on record: Caco-2 monolayers. Background: Caco-2 cells form a polarised layer with tight junctions and transporters.
Procedure: as §1, §2, §3, §4, §5
The nature of a further data set: in vitro. Conditions: human, Caco-2, pH 7.4.
A short description of data set [3]: Tissue distribution and PK after tail vein injection. In kind it is in vivo, mice. As to the method: The mixture was then transferred to a sterile centrifuge tube after being repeatedly ground for 30 min with a tiny amount of ordinary saline added. After that, saline was added and ultrasonically processed for 1 h. In a vacuum freeze drier, the suspension was freeze-dried for 30 h. To make the injection, the freeze-dried powder was ultimately redissolved in regular saline. After acclimatization, all mice were acclimated before being randomly placed into four groups of three each: EDM (H) group, EDM (L) group, DEDM (H) group, DEDM (L) group. […] Supernatant plasma from the collected sample was transferred into another tube and kept at −80°C until analysis after being centrifuged at 3,000 rpm for 10 min. Immediately after blood was obtained, the mice were dissected. Saline was injected into the heart until the liver turned white. […] The calibration standards, tissue samples, and plasma samples were pretreated with acetonitrile for protein precipitation. […] To remove the denatured protein, the mixture was vortexed for 1 min and then centrifuged at 16,500 rpm for 10 min. The supernatant was finally injected into the LC-MS/MS in an aliquot of 100 µL for analysis. […] Using an isocratic elution, the EDM and DEDM were analyzed. […] With a flow rate of 0.3 mL/min, the ratio between A and B was 20: 80 for 4 min. The column temperature was kept at 35°C. Prior to injection, samples were transferred in an auto-sampler at a temperature of 4°C and 5 µL was the injection volume. […] The ion source was electrospray ionization (ESI) and adopts positive ion mode. The scan mode was multiple reaction monitoring (MRM). The operating conditions for the EDM and DEDM were 4000 V capillary voltage. […] Acetonitrile was used to prepare standard stock solutions for each type of EDM and DEDM individually. By diluting the standard stock solutions serially with acetonitrile, working standards for the EDM and DEDM were made. The calibration curve samples were acquired by spiking the series working standard solutions (10 μL) into a tube and evaporating the solvent, and then adding blank mouse tissue homogenate or plasma (100 μL). […] DEDM is used as an internal standard compound when detecting EDM. Meanwhile, when DEDM is detected, EDM is used as the internal standard compound. The final concentration of the internal standard compound is 10 ng/mL. […] For the Non-compartmental PK analysis, Thermo Kinetica (Version 5.0, Thermo Electron Corporation, Waltham, MA) was employed. Based on observed data, the time when the maximum tissue concentration was reached (Tmax) and the maximum tissue concentration (Cmax) were assessed. […] Additionally, the mean residence time (MRT) was computed. PK parameters are reported as the mean of […]. Linear and non-linear regressions were analyzed in Microsoft Excel 2016® (United States).

On the set-up of data set [4]: method as in Lin et al., 2012. The settings on record: ref Lin et al., 2012; cited from earlier work.

Bounds are passed on as bounds.

Usually Papp stands for the rate of passage across a membrane or cell layer, normalised by area and donor concentration. The low end stands for poor permeation, the high end for ready permeation. By Tmax is commonly meant the time from dosing to the highest level. Broadly, the half-life is the time needed for the level to fall by half in the phase considered. Higher therefore signals slow loss.

Procedure for in vitro: as §1, §2, §3, §4, §5

For `O=c1c2cccc(O)c2nc2n1CCc1c-2[nH]c2ccccc12` [1-HRUP, 1-hydroxyrutaecarpine], the Nontoxic concentration with Caco-2 cells (Caco-2 cells, MTT) came out at 100 µM. This molecule also yielded an apparent permeability coefficient (Papp) in the data set with Caco-2 cell monolayers [1] of at least 1 ×10⁻⁶ cm/s. Further, the “bidirectional transport comparison, secretory (basolateral→apical) vs absorptive (apical→basolateral) permeability” value in the data set with Caco-2 cell monolayers [2] is given as “nearly comparable”.

`COc1ccc2c(OC)c3ccoc3nc2c1` [EVT, evolitrine]: in the data set with Caco-2 cells (human), the Nontoxic concentration is 100 µM. In “in vitro”, the apparent permeability (Papp) at 120 min is about 10 ×10⁻⁶ cm/s. Further, the “bidirectional transport comparison, secretory (basolateral→apical) vs absorptive (apical→basolateral) permeability” value in the data set with Caco-2 cell monolayers [2] was “nearly comparable”.

Molecule `O=c1c2ccccc2nc2n1CCc1c-2[nH]c2ccccc12` [RUP, rutaecarpine] registered a Nontoxic concentration in the data set on Caco-2 cells (human) of 100 µM. In “in vitro”, this molecule yielded an apparent permeability (Papp) at 120 min of at least 1 ×10⁻⁶ cm/s. Further, in the data set on Caco-2 cell monolayers [2], the “bidirectional transport comparison, secretory (basolateral→apical) vs absorptive (apical→basolateral) permeability” value is given as “more than twice as high in the secretory direction”.

In the data set on Caco-2 cells (human), `C[n+]1c2n(c(=O)c3ccccc31)CCc1c-2[nH]c2ccccc12` [dehydroevodiamine] yielded a Nontoxic concentration of 100 µM. The same molecule came in with an AUC0-t in data set [3] (Kindy, 10 mg/kg tail vein, mice, average) of 1.87 µg·h/g. Moreover, the “time to maximum plasma concentration (Cmax)” value in data set [3] (mouse, in vivo) was at most 15 min. The Tmax was 45 min in data set [3] (mouse, in vivo, iv, 5 mg/kg); 15 min in data set [3] (mouse, in vivo, iv, 10 mg/kg, Tmax); 15 min in data set [3] (mouse, in vivo, time to peak concentration in different tissues). In data set [3] (mouse, in vivo, iv, Lung, 5 mg/kg tail vein, mice, average), the half-life was 107 min. Moreover, in data set [4], the oral bioavailability is given as 15.35%. The Papp at 120 min in the data set “in vitro” is 10 ×10⁻⁶ cm/s. Besides, the “bidirectional transport comparison, secretory (basolateral→apical) vs absorptive (apical→basolateral) permeability” value in the data set on Caco-2 cell monolayers [2] is “nearly comparable”. Also, the permeability class result in the data set with Caco-2 cell monolayers [2] (from Papp level) is “high permeability”.
